According to publication PMC5303205, “Comparative studies on the multi-component pharmacokinetics of Aristolochiae Fructus and honey-fried Aristolochiae Fructus extracts after oral administration in rats” (BMC Complementary and Alternative Medicine, 2017):
Like-named read-outs stand apart in the source and are kept apart here.

Key:
[1] = Multi-component pharmacokinetics of AAs in rats after oral administration of AF and HAF extracts (HPLC-MS/MS of plasma); set-up: species or system Sprague–Dawley (SD) rats; settings: Sprague-Dawley, rat, in vivo
Experimental: An aliquot (100 μl) of rat plasma was spiked with 10.0 μL IS, and vortexed with 300 μL acetic ether for 10 s before the supernatant was transferred into centrifuge tube. The extraction was repeated with 200 μL acetic ether. The combined organic layer was evaporated to dryness under a gentle stream of nitrogen at RT. The residue was resolved in 100 μL methanol and centrifuged at 15,800 × g for 10 min. The supernatant was used for HPLC-MS/MS analysis.
Chromatographic separation was performed by an Acquity C18 column (4.6 × 100 mm,3.5 μm) (Agilent Technologies, USA). The mobile phase was composed of water (containing 10 mM ammonium formate and formic acid, pH 3.0) (solvent A) and ACN (solvent B). The gradient profile of B was: 0–10 min, 35–38%; 10–11 min, 38– 60%; 11–17 min, 60–35%B; 17–18 min, 35%. The flow rate was kept at 0.5 mL/min. The column oven was set at 30 °C and the injection volume was 10 μL.
The mass spectrometer was operated in the positive ion electrospray mode with multiple reaction monitoring (MRM). The optimal MS parameters were set at the following parameters: a desolvation gas temperature of 450 °C, desolvation gas flow of 10 L/min, a nebulizer gas of 40 psi and a capillary voltage of 4000 V. The mass spectrometry conditions of AA I, AA II, AA C, AA D, 7-OH AA I and IS are summarized in Additional file 1: Table S1.
The rats were randomly divided into 6 groups (low, middle and high doses of AF and HAF; n = 6). After a week of acclimation, the animals were fasted for 12 h with free access to water. Then, AF and HAF extracts were administered to the rats. The extracts were suspended in 0.5% CMC–Na solution, and the oral doses (according to AA I in the extracts) were 3.0 mg/kg, 8.0 mg/kg and 15.0 mg/kg, respectively.
Blood samples were collected from the ocular vein using dried heparinized tubes at 0, 0.083, 0.17, 0.33, 0.50, 0.67, 0.83, 1, 2, 4, 6, 8, 10, 12 and 24 h from the start. The animals received fluid replacement (sterile isotonic saline) after every two samplings since the fifth collecting. The samples were then immediately centrifuged at 3100 × g for 10 min. The plasma obtained was frozen and stored at –20 °C until analysis.
All statistical analyses were performed using the SPSS 11.0 software (Chicago, USA). P values <0.05 were considered statistically significant. Pharmacokinetic analysis was performed using the proprietary DAS 3.0 software (Mathematical Pharmacology Professional Committee of China, Shanghai, China).
After the oral administration of AF and HAF extracts, rat plasma samples were prepared and analyzed as described above. Five main AAs can be detected in rat blood with the proposed HPLC-MS/MS method. The mean pharmacokinetic parameters of five AAs in AF and HAF are summarized in Tables 4, 5 and Additional files 5, 6, 7: Tables S4-S6. The maximum concentration (C max) was the experimentally-observed value. The other pharmacokinetic parameters of the five analytes were fitted by DAS 3.0 software.

[2] = Stability of AAs in rat plasma (QC samples, HPLC-MS/MS); format: in vitro ADME; settings: n = 5; for Short-term stability (RSD/%): fresh rat plasma at room temperature for 24 h before sample preparation; for Post-preparation stability (RSD/%): prepared rat plasma samples at room temperature for 24 h; for Long-term stability (RSD/%): rat plasma stored at –20 °C for 14 days; for Freeze-thaw stability (RSD/%): rat plasma, three freeze-thaw cycles (–20 °C 24 h, thawed at room temperature)
Experimental: The QC samples were assayed under several different conditions to evaluate the stability of AAs in rat plasma. The freeze-thaw stability of the analyte was determined over three freeze-thaw cycles. In each freeze-thaw cycle, the samples were frozen and stored at –20 °C for 24 h, then thawed at room temperature. To evaluate the long-term stability of AAs, the plasma samples were stored at –20 °C for 14 days. For the short-term stability, fresh plasma samples were kept at room temperature for 24 h before the sample preparation. After keeping the samples at room temperature for 24 h, post-preparation stability was tested. Stability was evaluated by comparing the mean concentration of the stored samples with the mean concentration of those prepared freshly. The stability data were acceptable when the bias was within ±15% of the actual value.

[3] = 3 mg/kg, AF extract, low dose (3.0 mg/kg as AA I), analyte dose mg/kg: AA I 3.0, AA II 0.21, AA C 1.42, AA D 1.60, 7-OH AA I 2.33, n = 6
[4] = 3 mg/kg, HAF extract, low dose (3.0 mg/kg as AA I), analyte dose mg/kg: AA I 3.0, AA II 0.26, AA C 1.53, AA D 1.51, 7-OH AA I 2.48, n = 6
[5] = 8 mg/kg, AF extract, mid dose (8.0 mg/kg as AA I), analyte dose mg/kg: AA I 8.0, AA II 0.56, AA C 3.78, AA D 4.26, 7-OH AA I 6.22, n = 6
[6] = 8 mg/kg, HAF extract, mid dose (8.0 mg/kg as AA I), analyte dose mg/kg: AA I 8.0, AA II 0.69, AA C 4.09, AA D 4.03, 7-OH AA I 6.62, n = 6
[7] = 15 mg/kg, AF extract, high dose (15.0 mg/kg as AA I), analyte dose mg/kg: AA I 15.0, AA II 1.05, AA C 7.09, AA D 8.00, 7-OH AA I 11.66, n = 6
[8] = 15 mg/kg, HAF extract, high dose (15.0 mg/kg as AA I), analyte dose mg/kg: AA I 15.0, AA II 1.29, AA C 7.66, AA D 7.56, 7-OH AA I 12.41, n = 6
[9] = high QC conc ng/mL: AA I 1830, AA II 3200, AA C 2980, AA D 3680, 7-OH AA I 3280
[10] = low QC conc ng/mL: AA I 1.83, AA II 8.00, AA C 186.3, AA D 36.8, 7-OH AA I 82.0
[11] = middle QC conc ng/mL: AA I 457.5, AA II 400, AA C 372.5, AA D 460, 7-OH AA I 410

COc1c(O)ccc2c1cc([N+](=O)[O-])c1c(C(=O)O)cc3c(c12)OCO3 [7-OH AA I]
AUC(0-inf) [1, 3]: 602 ng·h/mL | Cmax [1, 3]: 214 ng/mL | Tmax [1, 3]: 0.64 h | CL/F ([1]; 3 mg/kg, AF extract, low dose (3.0 mg/kg as AA I), analyte dose mg/kg: AA I 3.0, AA II 0.21, AA C 1.42, AA D 1.60, 7-OH AA I 2.33, n = 6, read-out: CLz/F (converted)): 71.5 mL/min/kg | Vd/F ([1]; 3 mg/kg, AF extract, low dose (3.0 mg/kg as AA I), analyte dose mg/kg: AA I 3.0, AA II 0.21, AA C 1.42, AA D 1.60, 7-OH AA I 2.33, n = 6, read-out: Vz/F): 24.7 L/kg | half-life ([1]; 3 mg/kg, AF extract, low dose (3.0 mg/kg as AA I), analyte dose mg/kg: AA I 3.0, AA II 0.21, AA C 1.42, AA D 1.60, 7-OH AA I 2.33, n = 6, read-out: t 1/2z (converted)): 3.84 h | AUC(0-inf) [1, 4]: 620 ng·h/mL | Cmax [1, 4]: 216 ng/mL | Tmax [1, 4]: 0.5 h | CL/F ([1]; 3 mg/kg, HAF extract, low dose (3.0 mg/kg as AA I), analyte dose mg/kg: AA I 3.0, AA II 0.26, AA C 1.53, AA D 1.51, 7-OH AA I 2.48, n = 6, read-out: CLz/F (converted)): 81.3 mL/min/kg | Vd/F ([1]; 3 mg/kg, HAF extract, low dose (3.0 mg/kg as AA I), analyte dose mg/kg: AA I 3.0, AA II 0.26, AA C 1.53, AA D 1.51, 7-OH AA I 2.48, n = 6, read-out: Vz/F): 17.5 L/kg | half-life ([1]; 3 mg/kg, HAF extract, low dose (3.0 mg/kg as AA I), analyte dose mg/kg: AA I 3.0, AA II 0.26, AA C 1.53, AA D 1.51, 7-OH AA I 2.48, n = 6, read-out: t 1/2z (converted)): 2.75 h | AUC(0-inf) [1, 5]: 1160 ng·h/mL | Cmax [1, 5]: 404 ng/mL | Tmax [1, 5]: 0.72 h | CL/F ([1]; 8 mg/kg, AF extract, mid dose (8.0 mg/kg as AA I), analyte dose mg/kg: AA I 8.0, AA II 0.56, AA C 3.78, AA D 4.26, 7-OH AA I 6.22, n = 6, read-out: CLz/F (converted)): 92.5 mL/min/kg | Vd/F ([1]; 8 mg/kg, AF extract, mid dose (8.0 mg/kg as AA I), analyte dose mg/kg: AA I 8.0, AA II 0.56, AA C 3.78, AA D 4.26, 7-OH AA I 6.22, n = 6, read-out: Vz/F): 26.1 L/kg | half-life ([1]; 8 mg/kg, AF extract, mid dose (8.0 mg/kg as AA I), analyte dose mg/kg: AA I 8.0, AA II 0.56, AA C 3.78, AA D 4.26, 7-OH AA I 6.22, n = 6, read-out: t 1/2z (converted)): 3.25 h | AUC(0-inf) [1, 6]: 991 ng·h/mL | Cmax [1, 6]: 366 ng/mL | Tmax [1, 6]: 0.67 h | CL/F ([1]; 8 mg/kg, HAF extract, mid dose (8.0 mg/kg as AA I), analyte dose mg/kg: AA I 8.0, AA II 0.69, AA C 4.09, AA D 4.03, 7-OH AA I 6.62, n = 6, read-out: CLz/F (converted)): 109 mL/min/kg | Vd/F ([1]; 8 mg/kg, HAF extract, mid dose (8.0 mg/kg as AA I), analyte dose mg/kg: AA I 8.0, AA II 0.69, AA C 4.09, AA D 4.03, 7-OH AA I 6.62, n = 6, read-out: Vz/F): 25.4 L/kg | half-life ([1]; 8 mg/kg, HAF extract, mid dose (8.0 mg/kg as AA I), analyte dose mg/kg: AA I 8.0, AA II 0.69, AA C 4.09, AA D 4.03, 7-OH AA I 6.62, n = 6, read-out: t 1/2z (converted)): 2.55 h | AUC(0-inf) [1, 7]: 1320 ng·h/mL | Cmax [1, 7]: 566 ng/mL | Tmax [1, 7]: 0.5 h | CL/F ([1]; 15 mg/kg, AF extract, high dose (15.0 mg/kg as AA I), analyte dose mg/kg: AA I 15.0, AA II 1.05, AA C 7.09, AA D 8.00, 7-OH AA I 11.66, n = 6, read-out: CLz/F (converted)): 174 mL/min/kg | Vd/F ([1]; 15 mg/kg, AF extract, high dose (15.0 mg/kg as AA I), analyte dose mg/kg: AA I 15.0, AA II 1.05, AA C 7.09, AA D 8.00, 7-OH AA I 11.66, n = 6, read-out: Vz/F): 52.3 L/kg | half-life ([1]; 15 mg/kg, AF extract, high dose (15.0 mg/kg as AA I), analyte dose mg/kg: AA I 15.0, AA II 1.05, AA C 7.09, AA D 8.00, 7-OH AA I 11.66, n = 6, read-out: t 1/2z (converted)): 3.45 h | AUC(0-inf) [1, 8]: 1130 ng·h/mL | Cmax [1, 8]: 531 ng/mL | Tmax [1, 8]: 0.53 h | CL/F ([1]; 15 mg/kg, HAF extract, high dose (15.0 mg/kg as AA I), analyte dose mg/kg: AA I 15.0, AA II 1.29, AA C 7.66, AA D 7.56, 7-OH AA I 12.41, n = 6, read-out: CLz/F (converted)): 207 mL/min/kg | Vd/F ([1]; 15 mg/kg, HAF extract, high dose (15.0 mg/kg as AA I), analyte dose mg/kg: AA I 15.0, AA II 1.29, AA C 7.66, AA D 7.56, 7-OH AA I 12.41, n = 6, read-out: Vz/F): 47.4 L/kg | half-life ([1]; 15 mg/kg, HAF extract, high dose (15.0 mg/kg as AA I), analyte dose mg/kg: AA I 15.0, AA II 1.29, AA C 7.66, AA D 7.56, 7-OH AA I 12.41, n = 6, read-out: t 1/2z (converted)): 2.94 h | Short-term stability (RSD/%) [2, 9]: 9.1% | Short-term stability (RSD/%) [2, 10]: 7.1% | Short-term stability (RSD/%) [2, 11]: 11.8% | Post-preparation stability (RSD/%) [2, 9]: 6.7% | Post-preparation stability (RSD/%) [2, 10]: 5.1% | Post-preparation stability (RSD/%) [2, 11]: 4.2% | Long-term stability (RSD/%) [2, 9]: 11.1% | Long-term stability (RSD/%) [2, 10]: 2.0% | Long-term stability (RSD/%) [2, 11]: 6.4% | Freeze-thaw stability (RSD/%) [2, 9]: 13.4% | Freeze-thaw stability (RSD/%) [2, 10]: 6.2% | Freeze-thaw stability (RSD/%) [2, 11]: 12.3%
